# According to US20040043043A1, “Preparation of emulsions and concentrates thereof” (priority 2000, published 2004):
# How the values were obtained:
# [1] = Chemical stability study: vitamin contents on storage at 20 °C/ambient RH; assay type: physicochemical; settings: Example 1 syrup; for Degraded: 18 months at 20 °C/ambient RH, '+' = increase; for Recovery (initial versus nominal): two batches
# Experimental: A stability study was carried out in order to investigate the chemical stability of the liquid multivitamin product. The product was manufactured according to the protocol set out in Example 1. Two production batches were prepared and subjected to a stability study. The following sampling times were used:
# 20° C./ambient 0, 3, 6, 12 and 18 months Relative Humidity (RH):
# The following results for the vitamin contents after 18 months were obtained for the two production batches respectively at 20° C./ambient RH: […]
# [2] = as above; assay type: physicochemical; settings: for Degraded / Content after 18 months / Recovery (initial versus nominal): Example 4 syrup; for Degraded: 18 months at 20 °C/ambient RH, '+' = increase; for Recovery (initial versus nominal): two batches; for Initial content: Example 4 vitamin and mineral syrup
Compound,Degraded [1],"Vitamin content after 18 months ([1]; batch 1, 20 °C/ambient RH)","Vitamin content after 18 months ([1]; batch 2, 20 °C/ambient RH)","Initial vitamin content ([1]; production batch 1, time 0)","Initial vitamin content ([1]; production batch 2, time 0)",Recovery (initial versus nominal) [1] [%],Degraded [2],"Content after 18 months ([2]; batch 1, 20 °C/ambient RH)","Content after 18 months ([2]; batch 2, 20 °C/ambient RH)",Recovery (initial versus nominal) [2] [%],"Initial content ([2]; batch 1, time 0)","Initial content ([2]; batch 2, time 0)"
O=C1O[C@H]([C@@H](O)CO)C(O)=C1O [Ascorbic acid],20%,42.8 mg/10 ml,43.6 mg/10 ml,54.4 mg/10 ml,55.3 mg/10 ml,97.4,32.8%,35.7 mg/5 ml,34.9 mg/5 ml,93.8,53.0 mg/5 ml,52.0 mg/5 ml
CC1=C(/C=C/C(C)=C/C=C/C(C)=C/C=C/C=C(C)/C=C/C=C(C)/C=C/C2=C(C)CCCC2(C)C)C(C)(C)CCC1 [Betacaroten],–,–,–,–,–,–,+6.3%,2315 IU/5 ml,2279 IU/5 ml,110.8,2172 IU/5 ml,2148 IU/5 ml
O=C(O)CCCC[C@@H]1SC[C@@H]2NC(=O)N[C@@H]21 [Biotin],–,–,–,–,–,–,9.8%,103 μg/5 ml,100 μg/5 ml,102.3,109 μg/5 ml,116 μg/5 ml
C=C1CC[C@H](O)C/C1=C/C=C1\CCC[C@]2(C)[C@@H]([C@H](C)CCCC(C)C)CC[C@@H]12 [Cholecalciferol],10%,"7.3, 7.3 μg/10 ml","7.3, 7.3 μg/10 ml",8.0 μg/10 ml,8.1 μg/10 ml,97.6,+2.5%,519 IU/5 ml,502 IU/5 ml,92.2,502 IU/5 ml,494 IU/5 ml
Cc1c(C)c2c(c(C)c1O)CC[C@@](C)(CCC[C@H](C)CCC[C@H](C)CCCC(C)C)O2 [D-α-tocopherol],2%,6.1 mg/10 ml,6.2 mg/10 ml,6.2 mg/10 ml,6.3 mg/10 ml,99.2,4.0%,12.0 IU/5 ml,11.9 IU/5 ml,103.8,12.5 IU/5 ml,12.4 IU/5 ml
Nc1nc2ncc(CNc3ccc(C(=O)N[C@@H](CCC(=O)O)C(=O)O)cc3)nc2c(=O)[nH]1 [Folic acid],21%,71.4 μg/10 ml,72.5 μg/10 ml,92.1 μg/10 ml,92.2 μg/10 ml,102.4,7.9%,255 μg/5 ml,244 μg/5 ml,96.8,276 μg/5 ml,266 μg/5 ml
[Zn] [Zinc],–,–,–,–,–,–,1.2%,8.4 mg/5 ml,8.2 mg/5 ml,102.5,"8.2, 8.2 mg/5 ml","8.2, 8.2 mg/5 ml"

# More lines, now with the values ahead:
Degraded [1],"Vitamin content after 18 months ([1]; batch 1, 20 °C/ambient RH)","Vitamin content after 18 months ([1]; batch 2, 20 °C/ambient RH)","Initial vitamin content ([1]; production batch 1, time 0)","Initial vitamin content ([1]; production batch 2, time 0)",Recovery (initial versus nominal) [1] [%],Degraded [2],"Content after 18 months ([2]; batch 1, 20 °C/ambient RH)","Content after 18 months ([2]; batch 2, 20 °C/ambient RH)",Recovery (initial versus nominal) [2] [%],"Initial content ([2]; batch 1, time 0)","Initial content ([2]; batch 2, time 0)",Compound
4%,11.6 mg/10 ml,11.9 mg/10 ml,12.2 mg/10 ml,12.3 mg/10 ml,97.2,4.7%,18.5 mg/5 ml,18.4 mg/5 ml,100.8,19.5 mg/5 ml,19.2 mg/5 ml,NC(=O)c1cccnc1 [Nicotinamide]
16%,"3.6, 3.6 mg/10 ml","3.6, 3.6 mg/10 ml",4.3 mg/10 ml,4.4 mg/10 ml,98.9,11.1%,"9.2, 9.2 mg/5 ml","9.2, 9.2 mg/5 ml",101.5,10.4 mg/5 ml,10.3 mg/5 ml,CC(C)(CO)[C@@H](O)C(=O)NCCC(=O)O [Pantothenic acid]
+2%,1.25 mg/10 ml,1.24 mg/10 ml,1.21 mg/10 ml,1.22 mg/10 ml,96.4,+1.1%,0.89 mg/5 ml,0.88 mg/5 ml,99.4,0.88 mg/5 ml,0.87 mg/5 ml,Cc1ncc(CO)c(CO)c1O [Pyridoxine]
16%,518 μg/10 ml,525 μg/10 ml,623 μg/10 ml,628 μg/10 ml,113,13%,1869 IU/5 ml,1862 IU/5 ml,110.0,"2145, 2145 IU/5 ml","2145, 2145 IU/5 ml",CC1=C(/C=C/C(C)=C/C=C/C(C)=C/CO)C(C)(C)CCC1 [Retinol]
+2%,1.08 mg/10 ml,1.09 mg/10 ml,1.05 mg/10 ml,1.06 mg/10 ml,95.9,4.0%,"1.19, 1.19 mg/5 ml","1.19, 1.19 mg/5 ml",93.9,1.25 mg/5 ml,1.23 mg/5 ml,Cc1cc2nc3c(=O)[nH]c(=O)nc-3n(C[C@H](O)[C@H](O)[C@H](O)CO)c2cc1C [Riboflavine]
8%,0.88 mg/10 ml,0.89 mg/10 ml,0.96 mg/10 ml,0.97 mg/10 ml,97.5,7.9%,"1.16, 1.16 mg/5 ml","1.16, 1.16 mg/5 ml",96.9,1.27 mg/5 ml,1.25 mg/5 ml,Cc1ncc(C[n+]2csc(CCO)c2C)c(N)n1 [Thiamine]
–,–,–,–,–,–,16.7%,9.7 μg/5 ml,9.8 μg/5 ml,104.5,11.6 μg/5 ml,11.8 μg/5 ml,Vitamin B12
